Laboratory results taken from patent US10369105B2, “Nanoparticulate compositions for targeted delivery of acid labile, lipophilic prodrugs of cancer chemotherapeutics and their preparation” (Veiled Therapeutics LLC, priority 2014, dated 2019).

How the values were obtained:
[1] = breast cancer patients; cited from earlier work
[2] = system: human MDA-MB-231 mammary tumor xenografts; experiment: Antitumor efficacy study ATL-3, IV Q1Dx5 and Q4Dx3; type: in vivo, human tumor in female athymic NCr-nu/nu mice; conditions: for complete tumor regressions: ten mice
Procedure: Experiment ATL-3 was performed to evaluate the antitumor activity of the intravenous (IV) treatment with formulated ART-207 when administered on two different schedules to female, athymic NCr-nu/nu mice implanted subcutaneously (SC) with human MDA-MB-231 mammary tumor xenografts. Paclitaxel was included as a reference compound. • Tumor Model:
Individual tumors of 90 animals grew to 88-216 mg in weight (88-216 mm3 in size) on Day 10 after tumor fragments implantation, the day of treatment initiation. […] The time points are indicated starting from the first day of treatment with formulated ART-207, vehicle control and Paclitaxel. • Study Design: […]
Animals in Groups 2, 3, and 4 were treated with formulated ART-207 which was administered IV on a Q1Dx5 schedule starting on Day 0 (Days 0-4) at doses of 105.2, 78.9, and 52.6 mg/kg/injection, respectively. Animals in Group 5 (Emulsion control) were treated IV on Q1Dx5 schedule starting on Day 0 with a drug free formulation. […] Animals in Group 7 were treated with formulated ART-207 which was administered IV once every four days for a total of three injections (Q4Dx3) starting on Day 0 (Days 0, 4, and 8) at a dose of 78.9 mg/kg/injection. Animals in Group 8 (Emulsion control) were treated IV on a Q4Dx3 schedule starting on Day 0 with a drug free formulation. Animals in Group 9 were treated IV on a Q4Dx3 schedule starting on Day 0 with paclitaxel at a dose of 18.9 mg/kg/injection.

[3] = MTD/tolerability study ATL-1, IV Q1Dx5, nontumored mice
Procedure: (§1) MTD study consisted of two major phases:
(§2) Material remaining from the dosing emulsion solutions was shipped back to Arbor Therapeutics after the end of the treatment phase. […] The assessment of returned material was carried out side by side with material retained.
(§3) Paclitaxel was included as a reference compound. • Tumor Model:
The studies ATL-1 and ATL-2 consisted each of six groups of five nontumored mice per group for a total of 30 mice on Day 1, the first day of treatment. All treatments were administered intravenously (IV) once a day for five consecutive days (Q1Dx5) beginning on Day 1.
(§4) Animals in Group 5 (Emulsion control) were treated with a drug free formulation (injection volume of 0.21 mL/20 g of body weight).

[4] = PK/PD study ATL-4: plasma and tissue concentrations after single IV injection, nontumored mice; type: in vivo, female athymic NCr-nu/nu mice; conditions: paclitaxel 18.9 mg/kg single IV
Procedure: Tumor Model; Experiment ATL-4. Animals were nontumored.
Experiment ATL-4: The study consisted of ten groups of three nontumored mice per group for a total of 30 mice on Day 1, one day before the treatment. All treatments were administered as a single IV injection on Day 2.

[5] = system: human MDA-MB-231 mammary tumor xenografts; experiment: MTD/tolerability and efficacy study ATL-2, IV Q1Dx5, tumored mice
Procedure: as §1, §2, §3
[…] All treatments were administered intravenously (IV) once a day for five consecutive days (Q1Dx5) beginning on Day 1.
as §4

[6] = Study # 2, tumor size 150 mg, Q1Dx5, dose 15 mpk
[7] = paclitaxel 15 mg/kg/injection IV Q1Dx5 (Group 6)
[8] = paclitaxel 18.9 mg/kg/injection IV Q4Dx3 (Group 9)
[9] = IV Q1Dx5, formulated ART-207 72.6, 47.1, 35.7 and 23.7 mg/kg/injection, paclitaxel 15 mg/kg/injection
[10] = Study # 1, tumor size 270 mg, Q1Dx5, dose 15 mpk

## CC(=O)O[C@H]1C(=O)[C@@]2(C)[C@H]([C@H](OC(=O)c3ccccc3)[C@]3(O)C[C@H](OC(=O)[C@H](O)[C@@H](NC(=O)c4ccccc4)c4ccccc4)C(C)=C1C3(C)C)[C@]1(OC(C)=O)CO[C@@H]1C[C@@H]2O [Paclitaxel]
[1]
  half-life (t1/2): 3.5 ± 0.80 h
[2]; [6]
  Survival rate (end of study): 40%
  Tumor free mice (end of study): 40%
[2]; [7]
  animals tumor-free on Day 56: four
  median tumor growth delay: 31.8 days
  complete tumor regressions: five
[2]; paclitaxel 15 mg/kg/injection IV Q1Dx5 (Group 6), Day 2
  deaths: one out of ten
[2]; paclitaxel 15 mg/kg/injection IV Q1Dx5 (Group 6), Day 12
  animals euthanized due to ataxia: One
[2]; [8]
  tolerability / deaths (in words): tolerated without deaths or mean body weight loss
  complete tumor regressions: one
[3]; IV Q1Dx5, nontumored mice, no death or more than 20% body weight loss within 14 days of end of treatment
  maximum tolerated dose (MTD): above 15 mg/kg/injection
[3]; [9]
  tolerability / deaths (in words): tolerated without deaths
[4]; female, athymic NCr-nu/nu, mouse, plasma, read-out: AUClast for paclitaxel in plasma
  AUC(0-t): 37700 ng·h/mL
[4]; female, athymic NCr-nu/nu, mouse, plasma, read-out: apparent terminal elimination half-life of paclitaxel in plasma (converted)
  half-life: 1 h
[4]; female, athymic NCr-nu/nu, mouse, plasma, read-out: total body clearance of paclitaxel (converted)
  clearance: 8.33 mL/min/kg
[4]; female, athymic NCr-nu/nu, mouse, plasma, read-out: volume of distribution of paclitaxel at steady state
  Vd: 0.658 L/kg
[4]; at 5 minutes (0.083 hours)
  mean peak plasma concentration of paclitaxel: 32.9 µg/mL
[5]; IV Q1Dx5, tumored mice
  maximum tolerated dose (MTD): below 15 mg/kg/injection
[5]; [9]
  tolerability / deaths (in words): toxic
[5]; Paclitaxel 15 mg/kg IV Q1Dx5, day 0 = first treatment
  animals died before day 11: 4 of 5
[5]; [10]
  Survival rate (end of study): 20%
  Tumor free mice (end of study): 0%
[5]; paclitaxel 15 mg/kg/injection IV Q1Dx5, Days 20 and 21
  animals euthanized due to being moribund: two
[5]; paclitaxel 15 mg/kg/injection IV Q1Dx5, both deaths on Day 19
  deaths: two out of five
[5]; paclitaxel 15 mg/kg/injection, Day 13
  tumor weight of the surviving animal: 180 mg
[5]; paclitaxel 15 mg/kg/injection, Day 47
  tumor weight of the surviving animal: 32 mg
